The results in this text go back to the SangsterLogP compilation.

The data set in a line: method code SF-AS, from PMID: 7324974. The conditions noted are these: pH 5.0.
Broadly, the logD is the decadic logarithm of the distribution of all forms, ionised or not, between an organic phase and buffer at a given pH. A higher logD goes with higher lipophilicity. In turn, `CCOC(=O)c1cnc2cccc(C)n2c1=O` registered a logD of 0.96.

Turning to `CCCc1nc2cccc(C)n2c(=O)c1CC`, the logD was determined as 2.37.

Turning to `CCOC(=O)c1cnc2n(c1=O)C(C)CCC2` (centres undefined), the logD was 0.62.

For the compound `CCOC(=O)C1=CNC2CCCC(C)N2C1=O` (centres undefined), the logD came out at 0.79.

The compound `CCCC1CCCc2ncc(C(=O)OC)c(=O)n21` (centres undefined) came in with a logD of 1.14.

Consider `CCOC(=O)c1cnc2n(c1=O)CCCC2`, for which the logD amounted to 0.15.

Compound `CCOC(=O)C1=CN(C)C2CCCC(C)N2C1=O` (centres undefined) showed a logD of 0.45.

`Cc1cnc2ccccn2c1=O`: the logD was found to be 0.77.

The compound `CCOC(=O)c1cnc2ccc(C)cn2c1=O` gave a pH-dependent lipophilicity (logD) of 0.9.

`CC1CCCC2NC=C(C(N)=O)C(=O)N12` (centres undefined) registered a logD of 0.51.

`CC1CCC=C2N(C)C=C(C(N)=O)C(=O)N21` (centres undefined) came in with a logD of 0.12.

Turning to `COC(=O)c1cnc2n(c1=O)C(C(C)C)CCC2` (centres undefined), the logD was 0.99.

On to `CCc1nc2cccc(C)n2c(=O)c1C`, for which the logD amounted to 1.87.

For the compound `CCOC(=O)C1=CNC2CCCCN2C1=O` (centres undefined), the logD came out at 0.57.

Turning to `CCOC(=O)c1cnc2ccccn2c1=O`, the logD was determined as 0.25.

Regarding `CC1CCCC2N(C)C=C(C(N)=O)C(=O)N12` (centres undefined), the logD came to 0.22.

In the case of `CCOC(=O)c1cnc2n(c1=O)CCC(C)C2` (centres undefined), the log distribution coefficient (logD) amounted to 0.66.

In the case of `CCN1C=C(C(N)=O)C(=O)N2C(C)CCCC12` (centres undefined), the pH-dependent lipophilicity (logD) is 0.6.

In the case of `COC(=O)c1cnc2n(c1=O)CCCC2`, the logD was -0.25.

Take `Cc1cc(=O)n2c(C)cccc2n1`: the logD was determined as 1.05.

`Cc1cccc2ncc(-c3ccccc3)c(=O)n12`: the logD stood at 2.59.

The compound `CCOC(=O)c1cnc2n(c1=O)CC(C)CC2` (centres undefined) showed a logD of 0.71.

For `CC1CCCc2ncc(C(N)=O)c(=O)n21` (centres undefined), the logD turned out to be 0.04.

The compound `CCOC(=O)c1cnc2c(C)cccn2c1=O` came in with a logD of 1.16.

`CCc1cccc2nc(C)cc(=O)n12` gave a logD of 1.63.

`CCOC(=O)c1cnc2cc(C)ccn2c1=O` came in with a logD of 0.87.

Regarding `CCc1cc(=O)n2c(C)cccc2n1`, the logD amounted to 1.59.

Take `CCCCC1CCCc2ncc(C(=O)OC)c(=O)n21` (centres undefined): the log distribution coefficient (logD) worked out at 1.77.

With `COC(=O)c1cnc2n(c1=O)C(C)CCC2` (centres undefined), the log distribution coefficient (logD) is 0.16.
